# Test results reported in article PMC2677215 (Biochemical Journal, 2009).
# Key:
# Experiment in all cases: radiometric citrulline NOS assay
# Format in all cases: biochemical
# [1] = target: T1, Physarum NOS form B (clone B+; physnosb) (Badhamia polycephala, UniProt A6XKZ6)
# [2] = target: T2, Physarum NOS form A (clone A1; physnosa) (Badhamia polycephala, UniProt A6XKZ4)
# [3] = target: T1, Physarum NOS form B (clone B+; physnosb); remark: listed apart in the source
# [4] = target: T2, Physarum NOS form A (clone A1; physnosa); remark: listed apart in the source
SMILES,EC50 [1] [µM],EC50 [2] [µM],IC50 [3] [µM],IC50 [4] [µM]
Cc1cc2nc3c(=O)[nH]c(=O)nc-3n(C[C@H](O)[C@H](O)[C@H](O)COP(=O)(O)OP(=O)(O)OC[C@H]3O[C@@H](n4cnc5c(N)ncnc54)[C@H](O)[C@@H]3O)c2cc1C [FAD],2.1 ± 1.6,3.9 ± 1.6,,
Cc1cc2nc3c(=O)[nH]c(=O)nc-3n(C[C@H](O)[C@H](O)[C@H](O)COP(=O)(O)O)c2cc1C [FMN],0.2 ± 0.2,1.7 ± 0.6,,
"N=C(NCCC[C@H](N)C(=O)O)N[N+](=O)[O-] [L-NNA, N^ω-nitro-L-arginine]",,,39.8 ± 20.3,25.7 ± 10.7

# The next lines start with the values.
EC50 [1] [µM],EC50 [2] [µM],IC50 [3] [µM],IC50 [4] [µM],SMILES
0.7 ± 0.1,7.9 ± 1.2,,,"C[C@H](O)[C@H](O)[C@H]1CNc2nc(N)[nH]c(=O)c2N1 [H4-bip, 6R-5,6,7,8-tetrahydro-L-biopterin]"
,,76.7 ± 4.3,81.3 ± 7.8,"CC(=N)NCCCC[C@H](N)C(=O)O [L-NIL, L-N6(1-iminoethyl)-lysine]"
,,44.3 ± 19.2,45.2 ± 23.5,"CNC(=N)NCCC[C@H](N)C(=O)O [L-NMMA, N^ω-methyl-L-arginine]"
60.3 ± 13.8,57.2 ± 6.5,,,NC(=O)C1=CN([C@@H]2O[C@H](COP(=O)(O)OP(=O)(O)OC[C@H]3O[C@@H](n4cnc5c(N)ncnc54)[C@H](OP(=O)(O)O)[C@@H]3O)[C@@H](O)[C@H]2O)C=CC1 [NADPH]
